Experimental data from patent publication US20250381171A1, “COMBINATION OF DIHYDROBERBERINE AND ERGOTHIONEINE TO REDUCE OR INHIBIT ADVANCED GLYCATION END-PRODUCTS” (NANJING NUTRABUILDING BIO-TECH CO., LTD., priority 2023, published 2025).

How the values were obtained:
GSH-Px = GSH-Px activity in skin of D-galactose-injected mice; type: in vivo, Kunming mice; conditions: 14th week, 100 mg/kg each s.c. once daily for 6 weeks, vs non-supplementation group
Description: (§1) Six-week-old, male, Kunming mice (n=40), weighed about 30±2 g, were obtained from Cavens Lab Animal (Changzhou, China) and housed in a controlled room (25±2° C., 60% relative humidity, 12 h light/dark cycle) with free access to water and standard laboratory diet. After an acclimation period (1 week), mice were randomly divided into four groups. Each mouse's back skin was chosen as the experimental observation area, a razor was used to shave off the back hair. 5% sodium sulfide solution was applied to the back to remove the hair. All mice were then injected subcutaneously with same volume of D-galactose (1000 mg/kg), once a day for 8 weeks. During the entire experiment, the daily food intake and weight of each mouse were recorded every day, and the D-galactose injection dose were adjusted according to the weight change. The four groups were non-supplement group (Con, Group 1); DHB supplement group (100 mg/kg, Group 2); EGT supplement group (100 mg/kg, Group 3); and EGT+DHB supplement group (100 mg/kg EGT+100 mg/kg DHB, Group 4). Mice in groups 2-4 were injected subcutaneously (s.c.) into their back skins with the corresponding concentration before each major meal once daily for 6 weeks. All mice were sacrificed after 6 weeks at the end of the experiment. […] The levels of H2O2, SOD, CAT, GSH, and GSH-Px in the skin were detected with relative kits as reference. […]

GSH = GSH activity in skin of D-galactose-injected mice; type: in vivo, Kunming mice; conditions: 14th week, 100 mg/kg each s.c. once daily for 6 weeks, vs non-supplementation group
Description: as §1

CAT = CAT activity in skin of D-galactose-injected mice; type: in vivo, Kunming mice; conditions: 14th week, 100 mg/kg each s.c. once daily for 6 weeks, vs non-supplementation group
Description: as §1

SOD = SOD activity in skin of D-galactose-injected mice; type: in vivo, Kunming mice; conditions: 14th week, 100 mg/kg each s.c. once daily for 6 weeks, vs non-supplementation group
Description: as §1

[1] = system: advanced glycation end products (AGEs) formed from bovine serum albumin (BSA) and D-ribose; experiment: Measurement of glycation: fluorescence of AGEs from BSA incubated with D-ribose; type: biochemical; conditions: BSA 1 mg/ml + D-ribose 10 mM, 37° C., 10 days; EGT 3 mM alone or DHB 3 mM + EGT 3 mM
Description: The formulation of glycation products was observed placing together a bovine serum albumin (BSA) and D-ribose in the absence of DHB and EGT, EGT only and DHB and EGT combination.
Specifically, a solution of BSA at a concentration of 1 mg/ml dissolved in phosphate-buffered saline (PBS) was incubated at 37° C. for 10 days with D-ribose at a concentration of 10 mM, in the presence of EGT only (3 mM, Group 1) and the DHB (3 mM) and EGT (3 mM) combination (Group 2).
So, the glycation was evaluated by measuring the fluorescence of the AGEs at λem=450 nm emitted by each sample after excitation at λex=380 nm. The inhibition of glycation was visualized by the decrease in fluorescence compared with the samples treated with the sugar alone.

SMILES: COc1ccc2c(c1OC)CN1CCc3cc4c(cc3C1=C2)OCO4 [DHB, Dihydroberberine]
- GSH-Px activity (in words) (GSH-Px): significantly improved
- GSH activity (in words) (GSH): significantly improved
- CAT activity (in words) (CAT): significantly improved
- SOD activity (in words) (SOD): significantly improved

SMILES: C[N+](C)(C)[C@@H](Cc1c[nH]c(=S)[nH]1)C(=O)[O-] [EGT, ergothioneine]
- anti-glycation activity (in words) [1]: fabulous anti-glycation activity
- GSH-Px activity (in words) (GSH-Px): significantly improved
- GSH activity (in words) (GSH): significantly improved
- CAT activity (in words) (CAT): significantly improved
- SOD activity (in words) (SOD): significantly improved
